Results on 13 molecules are retold here after US20150344426A1, “COMPOUNDS AND THERAPEUTIC USES THEREOF” (ALZHEIMER'S INSTITUTE OF AMERICA, INC., priority 2012, published 2015).

A short description of data set [1]: Stability in mouse liver microsomal preparations. Format: in vitro ADME. Conditions: liver microsomes, with and without 1 mM NADPH (not said which), read-out: Mouse Liver Microsomes t1/2. On the procedure:
(§1) Relative stability of Example Compound Nos. 1 through 60 in mouse plasma and mouse liver microsomal preparations.
(§2) Certain Example Compounds were each added to a final concentration of 1 μM to 1 mL of each of mouse plasma and mouse liver microsomal preparations (with and without 1 mM NADPH). Stability assays were run in duplicate and were sampled at 0, 5, 15, 30, 60 and 120 minutes as follows: one hundred microliter aliquots of samples were removed at the specified sampling times, and the reaction was quenched with 400 μL of acetonitrile.
(§3) Samples were analyzed by HPLC-ESI-MS/MS by measuring the peak area of both the starting Example Compound and parent compound (i.e., either Parent Compound A or Parent Compound B) that were created by removal of the Prodrug Moiety (as defined in Section 6 herein).
For orientation: Liver microsomes are vesicles of endoplasmic reticulum, rich in cytochrome P450 enzymes.

The nature of data set [2]: Stability assessment / semi-quantitative hygroscopicity in a relative humidity (RH) chamber. The note with it: solid in RH chamber; morphology and parent:prodrug composition. The data set is classed as physicochemical. On the procedure: “ND” in Table 2 refers to “No Data”. Purity was determined by HPLC. Melting point was determined by differential scanning calorimetry (“DSC”), and semi-quantitative hygroscopicity was determined in a relative humidity (“RH”) chamber.

Data set [3] can be described thus: Stability in mouse plasma. Format: in vitro ADME. The note with it: read-out: Mouse Plasma t1/2. The protocol:
as §1, §2, §3

Data set [4] deals with HT1080 human fibrosarcoma cancer cells. Briefly: Anti-tumor activity in HT1080 human fibrosarcoma xenograft with twice daily dosing. Format: in vivo. The note with it: for animals euthanized due to tumor volume exceeding 1,500 mm^3 / animals died: Example Compound 42 study, cohort of ten; for anti-tumor activity in the HT1080 xenograft model (summary statement): administered orally, twice daily. The protocol:
One million HT1080 cells were implanted subcutaneously in the right flank of female nude mice (Crl:NU-Fox1^nu). When the median tumor volume (MTV) was approximately 209 mm^3, mice were randomized into four cohorts of ten animals. […] All cohorts were dosed twice daily for 7 days. The mice were observed daily for mortality and signs of toxicity. Tumor volumes and body weights were determined from Days 1 to 22. The results are depicted in FIG. 4.

Setting [5] is: Example Compounds 44/45 study, 12 mg/kg twice daily for 7 days, Day 9.

The structures appear in SMILES notation. Bounds are passed on as bounds.

Consider `CC(=O)OC(C)[n+]1cccc(CNC(=O)Nc2ccc(OCCc3ccccc3-c3ccccc3)cc2)c1` (centres unmarked) [Example 37, 1-[1-(Acetyloxy)ethyl]-3-{[({4-[2-(biphenyl-2-yl)ethoxy]phenyl}carbamoyl)amino]methyl}pyridinium], for which the half-life at 1 µM in data set [1] turned out to be 18.7 min. Also, in data set [2], the “Stability at 40° C. and 75% RH” value is on record as “Deliquesced at 2 Hr No change in composition”; the “Stability at 60° C. and 75% RH” value is on record as “Deliquesced at 2 Hr No change in composition”. In addition, the half-life at 1 µM in data set [3] was more than 5 min.

As to `CC(OC(=O)c1ccccc1)[n+]1cccc(CNC(=O)Nc2ccc(OCCc3ccccc3-c3ccccc3)cc2)c1` (centres unmarked) [Example 42, 1-[1-(Benzoyloxy)ethyl]-3-{[({4-[2-(biphenyl-2-yl)ethoxy]phenyl}carbamoyl)amino]methyl}pyridinium], the MTV increase was 131% in data set [4] (4 mg/kg twice daily for 7 days, Day 8); 469% in data set [4] (4 mg/kg twice daily for 7 days, end of the study, Day 15); 87% in data set [4] (6 mg/kg twice daily for 7 days, Day 8); 215% in data set [4] (6 mg/kg twice daily for 7 days, end of the study, Day 15); 449% in data set [4] (8 mg/kg twice daily for 7 days, end of the study, Day 15); 236% in data set [4] (12 mg/kg twice daily for 7 days, end of the study, Day 15). Besides, the tumor growth inhibition in data set [4] (4 mg/kg twice daily for 7 days, end of dosing, Day 8) is 21%; in data set [4] (6 mg/kg twice daily for 7 days, end of dosing, Day 8) it was 48%. The MTV decrease in data set [4] (8 mg/kg twice daily for 7 days, Day 8) was determined as 4%; in data set [4] (12 mg/kg twice daily for 7 days, Day 8) it was 38%. For the same molecule, the tumor regression came out at 4% in data set [4] (8 mg/kg twice daily for 7 days, end of dosing, Day 8) and 38% in data set [4] (12 mg/kg twice daily for 7 days, end of dosing, Day 8). Also, the results for the “animals euthanized due to tumor volume exceeding 1,500 mm^3” value in data set [4] (4 mg/kg), in data set [4] (6 mg/kg) and in data set [4] (8 mg/kg) were “three”, “one” and “two”, respectively. Further, the animals died result in data set [4] (6 mg/kg), in data set [4] (8 mg/kg) and in data set [4] (12 mg/kg) was “One” throughout. In addition, the “anti-tumor activity in the HT1080 xenograft model (summary statement)” value in data set [4] (all doses tested) is reported as “dose-dependent anti-tumor activity”. Further, the “Stability at 40° C. and 75% RH” value in data set [2] is on record as “No change in morphology at 14 days, only prodrug observed”. In data set [2], the “Stability at 60° C. and 75% RH” value is “Deliquesced at 13 days, approx 40:60 parent to prodrug observed”.

`CC(=O)OC[C@@H]1CCCN1C(=O)OC[n+]1cccc(CNC(=O)Nc2ccc(OCCc3ccccc3-c3ccccc3)cc2)c1` [Example 45, 1-{[({(2S)-2-[(Acetyloxy)methyl]pyrrolidin-1-yl}carbonyl)oxy]methyl}-3-{[({4-[2-(biphenyl-2-yl)ethoxy]phenyl}carbamoyl)amino]methyl}pyridinium]: the half-life at 1 µM in data set [1] is more than 5 min. In data set [4] (setting [5]), this molecule registered an MTV decrease of 54% and a tumor regression of 54%. In data set [4] (Example Compounds 44/45 study, 12 mg/kg twice daily for 7 days, Day 22), the “tumor growth inhibition relative to vehicle” value turned out to be 91%. Further, in data set [4] (Example Compounds 44/45 study, 12 mg/kg twice daily for 7 days, end of the study, Day 22), the MTV increase is 33%. Besides, in data set [4] (all doses tested), the “anti-tumor activity in the HT1080 xenograft model (summary statement)” value is given as “significant anti-tumor activity”. Besides, the Tolerability result in data set [4] (xenograft mice, all doses tested, orally twice daily) is listed as “well tolerated”. Also, in data set [3], the half-life at 1 µM was more than 5 min.

On to `O=C(NCc1ccc[n+](COC(=O)N2CCC[C@H]2CO)c1)Nc1ccc(OCCc2ccccc2-c2ccccc2)cc1` [Example 46, 3-{[({4-[2-(Biphenyl-2-yl)ethoxy]phenyl}carbamoyl)amino]methyl}-1-[({[(2S)-2-(hydroxymethyl)pyrrolidin-1-yl]carbonyl}oxy)methyl]pyridinium], for which the half-life at 1 µM came out at 1250 min in data set [1] and 87.2 min in data set [3].

Regarding `CC(C)C(=O)OC(C)[n+]1cccc(CNC(=O)Nc2ccc(OCCc3ccccc3-c3ccccc3)cc2)c1` (centres unmarked) [Example 47, 3-{[({4-[2-(Biphenyl-2-yl)ethoxy]phenyl}carbamoyl)amino]methyl}-1-{1-[(2-methylpropanoyl)oxy]ethyl}pyridinium], in data set [2], the “Stability at 40° C. and 75% RH” value was “No change in morphology at 14 days, only prodrug observed”; the “Stability at 60° C. and 75% RH” value is listed as “Approximately 45:55 parent to prodrug observed after 14 days”.

In the case of `COC(=O)CNC(=O)OC[n+]1cccc(CNC(=O)Nc2ccc(OCCc3ccccc3-c3ccccc3)cc2)c1` [Example 48, Methyl N-{[(3-{[({4-[2-(biphenyl-2-yl)ethoxy]phenyl}carbamoyl)amino]methyl}pyridinium-1-yl)methoxy]carbonyl}glycinate], in data set [2], the “Stability at 40° C. and 75% RH” value is “Deliquesced at 2 hr No decomposition observed”; the “Stability at 60° C. and 75% RH” value was “Deliquesced at 2 hr No decomposition observed”.

Regarding `COC(=O)CCNC(=O)OC[n+]1cccc(CNC(=O)Nc2ccc(OCCc3ccccc3-c3ccccc3)cc2)c1` [Example 49, Methyl N-{[(3-{[({4-[2-(biphenyl-2-yl)ethoxy]phenyl}carbamoyl)amino]methyl}pyridinium-1-yl)methoxy]carbonyl}-beta-alaninate], in data set [2], the “Stability at 40° C. and 75% RH” value is “Deliquesced at 24 hrs No decomposition observed”; the “Stability at 60° C. and 75% RH” value was “Deliquesced at 7 days”.

Turning to `COC(=O)CN(C)C(=O)OC[n+]1cccc(CNC(=O)Nc2ccc(OCCc3ccccc3-c3ccccc3)cc2)c1` [Example 50, Methyl N-{[(3-{[({4-[2-(biphenyl-2-yl)ethoxy]phenyl}carbamoyl)amino]methyl}pyridinium-1-yl)methoxy]carbonyl}-N-methylglycinate], in data set [2], the “Stability at 40° C. and 75% RH” value is reported as “No change in morphology at 14 days, only prodrug observed”; the “Stability at 60° C. and 75% RH” value was “Oiled out at 2 days No decomposition observed”.

`O=C(NCc1ccc[n+](COC(=O)c2cccnc2)c1)Nc1ccc(OCCc2ccccc2-c2ccccc2)cc1` [Example 53, 3-{[({4-[2-(Biphenyl-2-yl)ethoxy]phenyl)carbamoyl)amino]methyl}-1-{[(pyridin-3-ylcarbonyl)oxy]methyl}pyridinium]: in data set [2], the “Stability at 60° C. and 75% RH” value is given as “All prodrug decomposed to parent at 24 h”.

On to `COC(=O)CCC(=O)OC[n+]1cccc(CNC(=O)Nc2ccc(OCCc3ccccc3-c3ccccc3)cc2)c1` [Example 54, 3-{[({4-[2-(Biphenyl-2-yl)ethoxy]phenyl}carbamoyl)amino]methyl}-1-{[(4-methoxy-4-oxobutanoyl)oxy]methyl}pyridinium], for which the “Stability at 60° C. and 75% RH” value in data set [2] is given as “Deliquesced at 4 days”.

Regarding `O=C(NCc1ccc[n+](COC(=O)c2ccccc2O)c1)Nc1ccc(OCCc2ccccc2-c2ccccc2)cc1` [Example 55, 3-{[({4-[2-(Biphenyl-2-yl)ethoxy]phenyl}carbamoyl)amino]methyl}-1-{[(2-hydroxybenzoyl)oxy]methyl}pyridinium], in data set [2], the “Stability at 40° C. and 75% RH” value is reported as “Deliquesced at 4 h”; the “Stability at 60° C. and 75% RH” value is “Deliquesced at 4 h”.

Regarding `O=C(NCc1ccc[n+](COC(=O)N2CCCC2)c1)Nc1ccc(OCCc2ccccc2-c2ccccc2)cc1` [Example 59, 3-{[({4-[2-(Biphenyl-2-yl)ethoxy]phenyl}carbamoyl)amino]methyl}-1-{[(pyrrolidin-1-ylcarbonyl)oxy]methyl}pyridinium], in data set [2], the “Stability at 60° C. and 75% RH” value was “Deliquesced at 4 h”.

Regarding `O=C(NCc1ccc[n+](COC(=O)N2CCOCC2)c1)Nc1ccc(OCCc2ccccc2-c2ccccc2)cc1` [Example 60, 3-{[({4-[2-(Biphenyl-2-yl)ethoxy]phenyl}carbamoyl)amino]methyl}-1-{[(morpholin-4-ylcarbonyl)oxy]methyl}pyridinium], in data set [2], the “Stability at 40° C. and 75% RH” value was “Deliquesced at 4 h”; the “Stability at 60° C. and 75% RH” value is listed as “Deliquesced at 4 h”.
